# Test results reported in patent US20050239656A1, “Pyridine compounds or salts thereof and herbicides containing the same” (priority 2002, published 2005).
# What was measured:
# [1] = tested on: crabgrass; assay: Test Example 2: soil surface treatment, upland pot test; assay type: in vivo, Digitaria sanguinalis L.; details: active ingredient 1000 g/ha, observed 20th to 28th day
# Summary of the method: (§1)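 Seeds were sown in upland field soil in 1/170,000 ha pots. One day later, a wettable powder or emulsifiable concentrate at a predetermined active-ingredient rate, diluted in water at 1,500 L/ha, was sprayed onto the soil surface. Growth control (%) was scored visually 20–28 days after application (0 = untreated, 100 = complete kill).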
# [2] = tested on: soybean; assay: as above; assay type: in vivo, Glycine max Merr.; details: active ingredient 1000 g/ha, observed 20th to 28th day
# Summary of the method: as §1
# [3] = tested on: barnyardgrass; assay: Test Example 1: foliage treatment, upland pot test; assay type: in vivo, Echinochloa crus-galli L.; details: active ingredient 1000 g/ha, observed 18th to 23rd day, 0 = non-treated, 100 = complete kill
# Summary of the method: (§2)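 Upland pot test, foliar. Soybean 0.1–0.4 / wheat 1.3–2.4 / rice 1.2–2.6 / barnyardgrass 1.3–2.8 leaf stage at spraying; 500 L/ha carrier, 0.1% (v/v) spreader. Visual % control, 0 untreated to 100 dead, days 18–23.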
# [4] = tested on: wheat; assay: Test Example 1: foliage treatment, upland pot test; assay type: in vivo, Triticum spp.; details: crop, active ingredient 1000 g/ha, observed 18th to 23rd day, 0 = non-treated, 100 = complete kill
# Summary of the method: as §2
# [5] = tested on: crabgrass; assay: Test Example 1: foliage treatment, upland pot test; assay type: in vivo, Digitaria sanguinalis L.; details: active ingredient 1000 g/ha, observed 18th to 23rd day, 0 = non-treated, 100 = complete kill
# [6] = tested on: prickly sida; assay: Test Example 1: foliage treatment, upland pot test; assay type: in vivo, Sida spinosa L.; details: active ingredient 1000 g/ha, observed 18th to 23rd day, 0 = non-treated, 100 = complete kill
# [7] = tested on: soybean; assay: Test Example 1: foliage treatment, upland pot test; assay type: in vivo, Glycine max Merr.; details: crop, active ingredient 1000 g/ha, observed 18th to 23rd day, 0 = non-treated, 100 = complete kill
# Summary of the method: as §2
# [8] = tested on: corn; assay: Test Example 1: foliage treatment, upland pot test; assay type: in vivo, Zea mays L.; details: crop, active ingredient 1000 g/ha, observed 18th to 23rd day, 0 = non-treated, 100 = complete kill
# Summary of the method: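 Corn seeds were sown in upland field soil held in a 1/170,000 ha pot and grown to the 2.1 to 3.2 leaf stage. A wettable powder or emulsifiable concentrate of the test compound was diluted with water at 500 L/ha, given 0.1% (v/v) agricultural spreader, and sprayed onto the foliage with a small sprayer. Growth controlling degree (%) was scored visually 18th to 23rd days later, from 0 (non-treated) to 100 (complete kill).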
# [9] = tested on: japanese ribbon wapato; assay: Test Example 3: paddy pot test, application under submerged conditions; assay type: in vivo, Sagittaria pygniaea; details: submerged application at primary leaf stage, visually observed 14 days after application, 0 = non-treated, 100 = complete kill
# Summary of the method: (§3)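 Barnyardgrass and japanese bulrush sown in flooded paddy soil in greenhouse pots, japanese ribbon wapato tubers planted 1–2 days later; water depth kept at 3–4 cm. Diluted wettable powder or emulsifiable concentrate applied into water at 0.5-leaf or primary-leaf stage at set active-ingredient doses. Growth control scored visually at 14 days, 0 (untreated) to 100% (complete kill).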
# [10] = tested on: green foxtail; assay: Test Example 1: foliage treatment, upland pot test; assay type: in vivo, Setaria viridis L.; details: active ingredient 1000 g/ha, observed 18th to 23rd day, 0 = non-treated, 100 = complete kill
# [11] = tested on: redroot pigweed; assay: Test Example 2: soil surface treatment, upland pot test; assay type: in vivo, Amaranthus retroflexus L.; details: active ingredient 1000 g/ha, observed 20th to 28th day
# Summary of the method: as §1
# [12] = tested on: velvetleaf; assay: Test Example 1: foliage treatment, upland pot test; assay type: in vivo, Abutilon theophrasti MEDIC.; details: active ingredient 1000 g/ha, observed 18th to 23rd day, 0 = non-treated, 100 = complete kill
# [13] = tested on: green foxtail; assay: Test Example 2: soil surface treatment, upland pot test; assay type: in vivo, Setaria viridis L.; details: active ingredient 1000 g/ha, observed 20th to 28th day
# Summary of the method: as §1
# [14] = tested on: barnyardgrass; assay: as above; assay type: in vivo, Echinochloa crus-galli L.; details: active ingredient 1000 g/ha, observed 20th to 28th day, 0 = non-treated, 100 = complete kill
# Summary of the method: as §1
# [15] = tested on: rice (var. Nihonbare); assay: Test Example 3: paddy pot test, transplanted rice; assay type: in vivo, Oryza sativa L.; details: applied 4th day after transplantation, visually observed 21st day after application, 0 = non-treated, 100 = complete kill
# Summary of the method: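 Rice (var. Nihonbare) at 2 leaf stage transplanted 3 cm deep into puddled paddy soil under 3–4 cm flooding; on day 4 after transplanting, diluted wettable powder or emulsifiable concentrate applied by pipette under submerged conditions at a set active-ingredient dose. Growth scored visually 21 days after application, 0 (untreated) to 100 (complete kill) %.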
# [16] = tested on: prickly sida; assay: Test Example 2: soil surface treatment, upland pot test; assay type: in vivo, Sida spinosa L.; details: active ingredient 1000 g/ha, observed 20th to 28th day
# Summary of the method: as §1
# [17] = tested on: rice; assay: as above; assay type: in vivo, Oryza sativa L.; details: active ingredient 1000 g/ha, observed 20th to 28th day
# Summary of the method: as §1
# [18] = tested on: wheat; assay: as above; assay type: in vivo, Triticum spp.; details: active ingredient 1000 g/ha, observed 20th to 28th day
# Summary of the method: as §1
# [19] = tested on: japanese bulrush; assay: Test Example 3: paddy pot test, application under submerged conditions; assay type: in vivo, Scirpus juncoides; details: submerged application at 0.5 leaf stage, visually observed 14 days after application, 0 = non-treated, 100 = complete kill
# Summary of the method: as §3
# [20] = tested on: corn; assay: Test Example 2: soil surface treatment, upland pot test; assay type: in vivo, Zea mays L.; details: active ingredient 1000 g/ha, observed 20th to 28th day
# Summary of the method: as §1
# [21] = tested on: velvetleaf; assay: as above; assay type: in vivo, Abutilon theophrasti MEDIC.; details: active ingredient 1000 g/ha, observed 20th to 28th day
# Summary of the method: as §1
# [22] = tested on: redroot pigweed; assay: Test Example 1: foliage treatment, upland pot test; assay type: in vivo, Amaranthus retroflexus L.; details: active ingredient 1000 g/ha, observed 18th to 23rd day, 0 = non-treated, 100 = complete kill
# [23] = tested on: rice; assay: Test Example 1: foliage treatment, upland pot test; assay type: in vivo, Oryza sativa L.; details: crop, active ingredient 1000 g/ha, observed 18th to 23rd day, 0 = non-treated, 100 = complete kill
# Summary of the method: as §2
# [24] = tested on: barnyardgrass; assay: Test Example 3: paddy pot test, application under submerged conditions; assay type: in vivo, Echinochloa crus-galli L.; details: active ingredient 250 g/ha; submerged application at 0.5 leaf stage; visually observed 14 days after application; 0 = non-treated, 100 = complete kill
# Summary of the method: as §3
smiles,measurement,setting,value
"CC(C)C(c1cnccc1C(F)(F)F)N(C)C(=O)Cc1ccccc1 (centres unmarked) [I-1, N-methyl-N-[2-methyl-1-(4-trifluoromethylpyridin-3-yl)propyl]phenylacetamide]",Growth controlling degree (%) Crabgrass,[1],100%
same,Growth controlling degree (%) Soyabean,[2],50%
same,Growth controlling degree (%) Barnyardgrass,[3],80%
same,Growth controlling degree (%) wheat,[4],60%
same,Growth controlling degree (%) Crabgrass,[5],80%
same,Growth controlling degree (%) Prickly sida,[6],80%
same,Growth controlling degree (%) Soybean,[7],80%
same,Growth controlling degree (%) Corn,[8],70%
same,Growth controlling degree (%) Japanese ribbon wapato,[9]; active ingredient 500 g/ha,95%
same,Growth controlling degree (%) Green foxtail,[10],70%
same,Growth controlling degree (%) Redroot pigweed,[11],80%
same,Growth controlling degree (%) Velvetleaf,[12],90%
same,Growth controlling degree (%) Green foxtail,[13],100%
same,Growth controlling degree (%) Barnyardgrass,[14],90%
same,Growth controlling degree (%) Rice,[15]; active ingredient 500 g/ha,60%
same,Growth controlling degree (%) Prickly sida,[16],70%
same,Growth controlling degree (%) Rice,[17],80%
same,Growth controlling degree (%) wheat,[18],50%
same,Growth controlling degree (%) Japanese bulrush,[19]; active ingredient 500 g/ha,98%
same,Growth controlling degree (%) Corn,[20],70%
same,Growth controlling degree (%) Velvetleaf,[21],80%
same,melting point,,71.2 °C
same,Growth controlling degree (%) Redroot pigweed,[22],70%
same,Growth controlling degree (%) Rice,[23],60%
"CCN(C(=O)Cc1c(F)cccc1F)C(c1cnccc1C(F)(F)F)C(C)C (centres unmarked) [I-30, N-ethyl-N-[2-methyl-1-(4-trifluoromethylpyridin-3-yl)propyl]2,6-difluorophenylacetamide]",Growth controlling degree (%) Japanese ribbon wapato,[9]; active ingredient 250 g/ha,80%
same,Growth controlling degree (%) Rice,[15]; active ingredient 250 g/ha,0%
same,Growth controlling degree (%) Japanese bulrush,[19]; active ingredient 250 g/ha,90%
same,Growth controlling degree (%) Barnyardgrass,[24],100%
same,melting point,,121.9 °C
